In patent US20100317671A1, “XANTHINE-BASED CYCLIC GMP-ENHANCING RHO-KINASE INHIBITOR INHIBITS PHYSIOLOGICAL ACTIVITIES OF LUNG EPITHELIAL CELL LINE” (KAOHSIUNG MEDICAL UNIVERSITY, priority 2008, published 2010):

Columns and labels:
[1] = test system: PKG; experiment: Western blotting of lung tissue, OVA-sensitized and -challenged mice; assay type: in vivo; conditions: nebulization, 28-day experiment
[2] = test system: total cells, lymphocytes and eosinophils in BALF; experiment: Cellular components in BALF, OVA-challenged mice; assay type: in vivo; conditions: 24 hrs after last OVA challenge; nebulization
From the text: Inflammation and remodeling of the bronchioles is associated with infiltration of blood-born lymphocytes, eosinophils and neutrophils, migrating into bronchial lumen. During the course of allergic disease, structural changes occur in the airways, referred to as remodeling. However, treatment with KMUP-1 prevents the migration of blood born cells into bronchiole.

[3] = test system: sGCα1; experiment: Western blotting of lung tissue, OVA-sensitized and -challenged mice; assay type: in vivo; conditions: nebulization, 28-day experiment
[4] = test system: NOx; experiment: NOx levels in BALF of OVA-sensitized and -challenged mice (Griess reagent); assay type: in vivo; conditions: 24 hrs after last OVA challenge; basal 65.4, OVA 162.8 μM
[5] = test system: inflammatory cells, vascular and bronchial wall; experiment: Histological analyses of lung, OVA-exposed mice; assay type: in vivo
From the text: Histological analyses show the typical pathologic features of asthma in the OVA-exposed mice. Numerous inflammatory cells including eosinophils are infiltrated around the peri-vascular and peri-bronchial region, compared to control mice. […] After OVA challenge, marked increases in PA wall thickness % are found, compared to controls P<0.01).
OVA-sensitization increases the vascular and bronchial wall thickness, however, treatment with long-term KMUP-1 nebulization prevents these changes. […] MMP-9-immunostaining in peri-bronchial region and the reduced MMP-9-positive cells in bronchiole co-indicate the reduction of migration of infiltrated inflammatory cells.

[6] = test system: iNOS; experiment: Western blotting of lung tissue, OVA-sensitized and -challenged mice; assay type: in vivo; conditions: nebulization, 28-day experiment
[7] = test system: TGF-β; experiment: TGF-β expression, bleomycin-induced lung fibrosis (EIA); assay type: in vivo, mice; conditions: BM 60 mg/kg; drug 2.5 mg/kg oral
Description: The increased amount of the collagen synthesis and the macrophage generation in alveolus may facilitate the formulation of TGF-β, and the expression of TGF-β is deeming as a biomarker of the lung fibrosis. KMUP-1HCl salt (1, 2.5 and 5 mg/kg), the Simvastatin (5 mg/kg), the KMUP-1-nicotinic acid complex (2.5 mg/kg), the KMUP-1-Simvastatinic acid complex (2.5 mg/kg) and KMUP-1-γ-polyglutamic acid complex (2.5 mg/kg) are orally administered to the mice for inhibiting the lung fibrosis induced by TGF-β expression in tracheal lavage solution that resulted from 60 mg/kg BM inhalation (Table 6). The state of the TGF-β expression in the lavage is measured by the enzyme immunoassay (EIA).

| Compound | PKG expression reduced by OVA sensitization [1] | Increase in eosinophils in BALF [2] | Increase in lymphocytes in BALF [2] | Increase in total cells in BALF [2] | sGCα1 expression reduced by OVA sensitization [3] | Levels of NOx (nitrate+nitrite) in BALF [4] [µM] | Inflammatory cells in the peri-vascular and peri-bronchiolar regions ([5]; OVA-exposed mice) | Vascular and bronchial wall thickness increased by OVA-sensitization ([5]; long-term nebulization) | iNOS expression increased by OVA sensitization [6] | The changing amount of TGF-β in the lung tissue [7] [%] |
| --- | --- | --- | --- | --- | --- | --- | --- | --- | --- | --- |
| Cn1c(=O)c2c(ncn2CCN2CCN(c3ccccc3Cl)CC2)n(C)c1=O [KMUP-1, 7-[2-[4-(2-chlorobenzene)piperazinyl]ethyl]-1,3-dimethylxanthine] | prevented | significantly reduces | significantly reduces | significantly reduces | prevented | 86.3 ± 17.3 | marked reductions | prevents | significantly reduced | – |
| CCC(C)(C)C(=O)O[C@H]1C[C@@H](C)C=C2C=C[C@H](C)[C@H](CC[C@@H](O)C[C@@H](O)CC(=O)O)[C@H]21.Cn1c(=O)c2c(ncn2CCN2CCN(c3ccccc3Cl)CC2)n(C)c1=O [KMUP-5] | – | – | – | – | – | – | – | – | – | 45 ± 4.5 |
